# Read-outs that look alike come from different tables or passages of the source.
# Key:
# [1] = system: Phytophthora infestans (the causal agent of tomato late blight); assay: whole plant or invertebrate; type: in vivo; conditions: for TLB Obsd (disease control rating): Table B; for TLB Obsd: component (b) alone
# [2] = system: Pseudoperonospora cubensis (the causal agent of cucumber downy mildew); assay: Test B: cucumber downy mildew, preventive spray on cucumber seedlings; type: in vivo; conditions: for CDM Obsd (disease control rating): Table B
# [3] = Pseudoperonospora cubensis, component (b) alone 0.4 ppm (Compound 1 0 ppm), read-out: CDM Obsd
# [4] = Pseudoperonospora cubensis, component (b) alone 2 ppm (Compound 1 0 ppm), read-out: CDM Obsd
# [5] = Pseudoperonospora cubensis, component (b) alone 10 ppm (Compound 1 0 ppm), read-out: CDM Obsd
# [6] = Pseudoperonospora cubensis, component (b) alone 40 ppm (Compound 1 0 ppm), read-out: CDM Obsd
# [7] = Phytophthora infestans, read-out: TLB Obsd, component (b) alone, 2 ppm
# [8] = Phytophthora infestans, read-out: TLB Obsd, component (b) alone, 10 ppm
# [9] = Phytophthora infestans, read-out: TLB Obsd, component (b) alone, 40 ppm
# [10] = Phytophthora infestans, read-out: TLB Obsd, component (b) alone, 200 ppm
# [11] = Pseudoperonospora cubensis, component (b) alone, 2 ppm, read-out: CDM Obsd
# [12] = Pseudoperonospora cubensis, component (b) alone, 10 ppm, read-out: CDM Obsd
# [13] = Pseudoperonospora cubensis, component (b) alone, 40 ppm, read-out: CDM Obsd
# [14] = Pseudoperonospora cubensis, component (b) alone, 200 ppm, read-out: CDM Obsd
# [15] = Pseudoperonospora cubensis, Compound 214 alone, read-out: CDM Obsd
# [16] = Pseudoperonospora cubensis, Compound 214 alone, read-out: CDM Obsd (observed effect, cucumber downy mildew)
smiles,measurement,setting,value
COC(=O)N(OC)c1ccccc1COc1ccn(-c2ccc(Cl)cc2)n1 [pyraclostrobin],pest or weed control at 0.08 ppm,"[1]; Phytophthora infestans, read-out: TLB Obsd (observed effect, tomato late blight), component (b) alone, 0.08 ppm",15%
same,pest or weed control at 0.4 ppm,"[1]; Phytophthora infestans, read-out: TLB Obsd (observed effect, tomato late blight), component (b) alone, 0.4 ppm",35%
same,pest or weed control at 2 ppm,"[1]; Phytophthora infestans, read-out: TLB Obsd (observed effect, tomato late blight), component (b) alone, 2 ppm",63%
same,pest or weed control at 10 ppm,"[1]; Phytophthora infestans, read-out: TLB Obsd (observed effect, tomato late blight), component (b) alone, 10 ppm",90%
same,pest or weed control at 40 ppm,"[1]; Phytophthora infestans, read-out: TLB Obsd (observed effect, tomato late blight), component (b) alone, 40 ppm",94%
same,pest or weed control at 0.08 ppm,"[1]; Phytophthora infestans, read-out: TLB Obsd, Table D, component (b) alone at 0.08 ppm",26%
same,pest or weed control at 0.4 ppm,"[1]; Phytophthora infestans, read-out: TLB Obsd, Table D, component (b) alone at 0.4 ppm",40%
same,pest or weed control at 2 ppm,"[1]; Phytophthora infestans, read-out: TLB Obsd, Table D, component (b) alone at 2 ppm",78%
same,pest or weed control at 10 ppm,"[1]; Phytophthora infestans, read-out: TLB Obsd, Table D, component (b) alone at 10 ppm",85%
same,pest or weed control at 40 ppm,"[1]; Phytophthora infestans, read-out: TLB Obsd, Table D, component (b) alone at 40 ppm",95%
same,pest or weed control at 0.08 ppm,"[2]; Pseudoperonospora cubensis, Table D, component (b) alone at 0.08 ppm, read-out: CDM Obsd",47%
same,pest or weed control at 0.4 ppm,"[2]; Pseudoperonospora cubensis, Table D, component (b) alone at 0.4 ppm, read-out: CDM Obsd",47%
same,pest or weed control at 2 ppm,"[2]; Pseudoperonospora cubensis, Table D, component (b) alone at 2 ppm, read-out: CDM Obsd",98%
same,pest or weed control at 10 ppm,"[2]; Pseudoperonospora cubensis, Table D, component (b) alone at 10 ppm, read-out: CDM Obsd",100%
same,pest or weed control at 40 ppm,"[2]; Pseudoperonospora cubensis, Table D, component (b) alone at 40 ppm, read-out: CDM Obsd",100%
same,pest or weed control at 0.08 µg/mL,"[2]; Pseudoperonospora cubensis, component (b) alone 0.08 ppm (Compound 1 0 ppm), read-out: CDM Obsd",47%
same,pest or weed control at 0.4 µg/mL,[2]; [3],47%
same,pest or weed control at 2 µg/mL,[2]; [4],57%
same,pest or weed control at 10 µg/mL,[2]; [5],100%
same,pest or weed control at 40 µg/mL,[2]; [6],100%
same,pest or weed control at 0.08 ppm,"[2]; Pseudoperonospora cubensis, component (b) alone, 0.08 ppm, read-out: CDM Obsd (observed effect, cucumber downy mildew)",0%
same,pest or weed control at 0.4 ppm,"[2]; Pseudoperonospora cubensis, component (b) alone, 0.4 ppm, read-out: CDM Obsd (observed effect, cucumber downy mildew)",0%
same,pest or weed control at 2 ppm,"[2]; Pseudoperonospora cubensis, component (b) alone, 2 ppm, read-out: CDM Obsd (observed effect, cucumber downy mildew)",68%
same,pest or weed control at 10 ppm,"[2]; Pseudoperonospora cubensis, component (b) alone, 10 ppm, read-out: CDM Obsd (observed effect, cucumber downy mildew)",100%
same,pest or weed control at 40 ppm,"[2]; Pseudoperonospora cubensis, component (b) alone, 40 ppm, read-out: CDM Obsd (observed effect, cucumber downy mildew)",100%
CC(C)CC(C)c1sccc1NC(=O)c1cn(C)nc1C(F)(F)F (stereo not drawn) [penthiopyrad],pest or weed control at 0.4 ppm,"[1]; Phytophthora infestans, read-out: TLB Obsd (disease control rating), Table A, component (b) alone 0.4 ppm",0%
same,pest or weed control at 2 ppm,"[1]; Phytophthora infestans, read-out: TLB Obsd (disease control rating), Table A, component (b) alone 2 ppm",0%
same,pest or weed control at 10 ppm,"[1]; Phytophthora infestans, read-out: TLB Obsd (disease control rating), Table A, component (b) alone 10 ppm",9%
same,pest or weed control at 40 ppm,"[1]; Phytophthora infestans, read-out: TLB Obsd (disease control rating), Table A, component (b) alone 40 ppm",17%
same,pest or weed control at 200 ppm,"[1]; Phytophthora infestans, read-out: TLB Obsd (disease control rating), Table A, component (b) alone 200 ppm",17%
same,pest or weed control at 0.4 ppm,"[1]; Phytophthora infestans, read-out: TLB Obsd, component (b) alone, 0.4 ppm",0%
same,pest or weed control at 2 ppm,[1]; [7],22%
same,pest or weed control at 10 ppm,[1]; [8],7%
same,pest or weed control at 40 ppm,[1]; [9],15%
same,pest or weed control at 200 ppm,[1]; [10],7%
same,pest or weed control at 0.4 ppm,"[2]; Pseudoperonospora cubensis, Table A, component (b) alone 0.4 ppm, read-out: CDM Obsd (disease control rating)",47%
same,pest or weed control at 2 ppm,"[2]; Pseudoperonospora cubensis, Table A, component (b) alone 2 ppm, read-out: CDM Obsd (disease control rating)",47%
same,pest or weed control at 10 ppm,"[2]; Pseudoperonospora cubensis, Table A, component (b) alone 10 ppm, read-out: CDM Obsd (disease control rating)",47%
same,pest or weed control at 40 ppm,"[2]; Pseudoperonospora cubensis, Table A, component (b) alone 40 ppm, read-out: CDM Obsd (disease control rating)",47%
same,pest or weed control at 200 ppm,"[2]; Pseudoperonospora cubensis, Table A, component (b) alone 200 ppm, read-out: CDM Obsd (disease control rating)",47%
same,pest or weed control at 0.4 ppm,"[2]; Pseudoperonospora cubensis, Table G, component (b) alone at 0.4 ppm, read-out: CDM Obsd",43%
same,pest or weed control at 2 ppm,"[2]; Pseudoperonospora cubensis, Table G, component (b) alone at 2 ppm, read-out: CDM Obsd",33%
same,pest or weed control at 10 ppm,"[2]; Pseudoperonospora cubensis, Table G, component (b) alone at 10 ppm, read-out: CDM Obsd",26%
same,pest or weed control at 40 ppm,"[2]; Pseudoperonospora cubensis, Table G, component (b) alone at 40 ppm, read-out: CDM Obsd",26%
same,pest or weed control at 200 ppm,"[2]; Pseudoperonospora cubensis, Table G, component (b) alone at 200 ppm, read-out: CDM Obsd",47%
same,pest or weed control at 0.4 ppm,"[2]; Pseudoperonospora cubensis, component (b) alone, 0.4 ppm, read-out: CDM Obsd",0%
same,pest or weed control at 2 ppm,[2]; [11],0%
same,pest or weed control at 10 ppm,[2]; [12],0%
same,pest or weed control at 40 ppm,[2]; [13],0%
same,pest or weed control at 200 ppm,[2]; [14],16%
CO/N=C(/C(=O)OC)c1ccccc1COc1ccccc1C [kresoxim-methyl],pest or weed control at 0.4 ppm,"[1]; Phytophthora infestans, read-out: TLB Obsd (disease control rating), Table C, component (b) alone 0.4 ppm",9%
same,pest or weed control at 2 ppm,"[1]; Phytophthora infestans, read-out: TLB Obsd (disease control rating), Table C, component (b) alone 2 ppm",33%
same,pest or weed control at 10 ppm,"[1]; Phytophthora infestans, read-out: TLB Obsd (disease control rating), Table C, component (b) alone 10 ppm",80%
same,pest or weed control at 40 ppm,"[1]; Phytophthora infestans, read-out: TLB Obsd (disease control rating), Table C, component (b) alone 40 ppm",99%
same,pest or weed control at 200 ppm,"[1]; Phytophthora infestans, read-out: TLB Obsd (disease control rating), Table C, component (b) alone 200 ppm",99%
same,pest or weed control at 0.04 ppm,"[1]; Phytophthora infestans, read-out: TLB Obsd, component (b) alone, 0.04 ppm",8%
same,pest or weed control at 2 ppm,[1]; [7],32%
same,pest or weed control at 10 ppm,[1]; [8],86%
same,pest or weed control at 40 ppm,[1]; [9],96%
same,pest or weed control at 200 ppm,[1]; [10],100%
same,pest or weed control at 0.4 ppm,"[2]; Pseudoperonospora cubensis, Table C, component (b) alone 0.4 ppm, read-out: CDM Obsd (disease control rating)",47%
same,pest or weed control at 2 ppm,"[2]; Pseudoperonospora cubensis, Table C, component (b) alone 2 ppm, read-out: CDM Obsd (disease control rating)",47%
same,pest or weed control at 10 ppm,"[2]; Pseudoperonospora cubensis, Table C, component (b) alone 10 ppm, read-out: CDM Obsd (disease control rating)",53%
same,pest or weed control at 40 ppm,"[2]; Pseudoperonospora cubensis, Table C, component (b) alone 40 ppm, read-out: CDM Obsd (disease control rating)",57%
same,pest or weed control at 200 ppm,"[2]; Pseudoperonospora cubensis, Table C, component (b) alone 200 ppm, read-out: CDM Obsd (disease control rating)",100%
same,pest or weed control at 0.4 µg/mL,[2]; [3],47%
same,pest or weed control at 2 µg/mL,[2]; [4],47%
same,pest or weed control at 10 µg/mL,[2]; [5],47%
same,pest or weed control at 40 µg/mL,[2]; [6],99%
same,pest or weed control at 200 µg/mL,"[2]; Pseudoperonospora cubensis, component (b) alone 200 ppm (Compound 1 0 ppm), read-out: CDM Obsd",100%
same,pest or weed control at 0.04 ppm,"[2]; Pseudoperonospora cubensis, component (b) alone, 0.04 ppm, read-out: CDM Obsd",9%
same,pest or weed control at 2 ppm,[2]; [11],9%
same,pest or weed control at 10 ppm,[2]; [12],30%
same,pest or weed control at 40 ppm,[2]; [13],37%
same,pest or weed control at 200 ppm,[2]; [14],100%
"Cc1cc(C(F)(F)F)nn1CC(=O)N1CCC(c2nc(C3=NO[C@@H](c4c(F)cccc4F)C3)cs2)CC1 [Compound 214, 1-[4-[4-[(5R)-5-(2,6-difluorophenyl)-4,5-dihydro-3-isoxazolyl]-2-thiazolyl]-1-piperidinyl]-2-[5-methyl-3-(trifluoromethyl)-1H-pyrazol-1-yl]ethanone]",pest or weed control at 0.001 ppm,"[1]; Phytophthora infestans, read-out: TLB Obsd (observed effect, tomato late blight), Compound 214 alone, 0.001 ppm",44%
same,pest or weed control at 0.01 ppm,"[1]; Phytophthora infestans, read-out: TLB Obsd (observed effect, tomato late blight), Compound 214 alone, 0.01 ppm",98%
same,pest or weed control at 0.1 ppm,"[1]; Phytophthora infestans, read-out: TLB Obsd (observed effect, tomato late blight), Compound 214 alone, 0.1 ppm",100%
same,pest or weed control at 0.001 ppm,"[1]; Phytophthora infestans, read-out: TLB Obsd, Compound 214 alone, 0.001 ppm",22%
same,pest or weed control at 0.01 ppm,"[1]; Phytophthora infestans, read-out: TLB Obsd, Compound 214 alone, 0.01 ppm",98%
same,pest or weed control at 0.1 ppm,"[1]; Phytophthora infestans, read-out: TLB Obsd, Compound 214 alone, 0.1 ppm",100%
same,pest or weed control at 0.001 ppm,"[2]; Pseudoperonospora cubensis, Compound 214 alone, 0.001 ppm, read-out: CDM Obsd (observed effect, cucumber downy mildew)",16%
same,pest or weed control at 0.01 ppm,[2]; [15],88%
same,pest or weed control at 0.01 ppm,[2]; [16],83%
same,pest or weed control at 0.1 ppm,[2]; [15],100%
same,pest or weed control at 0.1 ppm,[2]; [16],100%
O=C(NCc1ncc(C(F)(F)F)cc1Cl)c1c(Cl)cccc1Cl [fluopicolide],TLB Obsd (disease control rating),[1]; component (b) alone 0.08 ppm,26%
same,TLB Obsd (disease control rating),[1]; component (b) alone 0.4 ppm,9%
same,TLB Obsd (disease control rating),[1]; component (b) alone 2 ppm,59%
same,TLB Obsd (disease control rating),[1]; component (b) alone 10 ppm,100%
same,TLB Obsd (disease control rating),[1]; component (b) alone 40 ppm,100%
same,TLB Obsd,[1]; 0.08 ppm,7%
same,TLB Obsd,[1]; 0.4 ppm,0%
same,TLB Obsd,[1]; 2 ppm,90%
same,TLB Obsd,[1]; 10 ppm,100%
same,TLB Obsd,[1]; 40 ppm,100%
same,CDM Obsd (disease control rating),[2]; component (b) alone 0.08 ppm,47%
same,CDM Obsd (disease control rating),[2]; component (b) alone 0.4 ppm,47%
same,CDM Obsd (disease control rating),[2]; component (b) alone 2 ppm,94%
same,CDM Obsd (disease control rating),[2]; component (b) alone 10 ppm,100%
same,CDM Obsd (disease control rating),[2]; component (b) alone 40 ppm,100%
same,CDM Obsd,[2]; component (b) alone 0.08 ppm (Compound 1 0 ppm),33%
same,CDM Obsd,[2]; component (b) alone 0.4 ppm (Compound 1 0 ppm),79%
same,CDM Obsd,[2]; component (b) alone 2 ppm (Compound 1 0 ppm),96%
same,CDM Obsd,[2]; component (b) alone 10 ppm (Compound 1 0 ppm),100%
same,CDM Obsd,[2]; component (b) alone 40 ppm (Compound 1 0 ppm),100%
same,CDM Obsd,"[2]; component (b) alone, 0.08 ppm",0%
same,CDM Obsd,"[2]; component (b) alone, 0.4 ppm",0%
same,CDM Obsd,"[2]; component (b) alone, 2 ppm",83%
same,CDM Obsd,"[2]; component (b) alone, 10 ppm",100%
same,CDM Obsd,"[2]; component (b) alone, 40 ppm",100%

# Reference: patent US8449898B2 (priority 2007, dated 2013)
